Tests used:
Type in all cases: in vivo, SD rats
[1] = test system: right ventricular function of rats in low-pressure low-oxygen cabin; experiment: Echocardiography of rats in low-pressure low-oxygen cabin (simulated altitude 5,500 m); details: x±s
Experimental: (§1) 40 healthy SD rats (180-220 g, male) are purchased from Beijing Vital River Laboratory Animal Technology Co. Ltd, belong to the SPF grade and have the license number of SCXK(Jing)2016-0006. The healthy SD rats are fed in a low-pressure oxygen cabin, and regularly fed with a complete nutritional feed under the conditions of the temperature of 22 to 25° C. and the humidity of 30% to 50%.
(§2) Solvent configuration: 5% of DMSO and 95% of normal saline with 10% of HP-β-CD, and pH=9.
(§3) An experimental group A: a low-pressure low-oxygen cabin, and intragastric administration of sc0062 (15 mg/kg) as well as a solvent
(§4) An experimental group B: a low-pressure low-oxygen cabin, and intragastric administration of sc0062 (30 mg/kg) as well as a solvent
(§5) 40 rats are randomly divided into four groups, each group includes 10 rats, 3 groups are placed into a low-pressure low-oxygen cabin, the pressure of the oxygen cabin is regulated to 380 mmHg, a high altitude environment with an altitude of 5,500 meters is simulated, the low-pressure low-oxygen cabin is opened for 1 hour every day so as to add foods and water for animals and carry out corresponding medicine treatment, and meanwhile, the environment where the rats are positioned are kept alternate day and night according to a ratio of 12 h:12 h. After 3 groups of rats are in the oxygen-poor environment for 14 days, intragastric administration is respectively carried out on the 3 groups of rats, the solvent (the model group), the sc0062 (15 mg/kg) and the solvent (the experimental group A) and the sc0062 (30 mg/kg) and the solvent (the experimental group B) are respectively applied to the 3 groups of rats, and the operation is continued for 14 days. Rats in the fourth group (the blank control group) are placed in the same room to be fed in the normal-pressure normal-oxygen environment.
(§6) 3% pentobarbital sodium (0.2 mL/100 g) is intraperitoneally injected to anesthetize the rats, ultrasonic detection is carried out, and the following ultrasonic data is recorded: PAT/PET (pulmonary arterial blood flow acceleration time/right ventricular […]); right ventricular ejection fraction EF; a right ventricular fractional shortening FS; and tricuspid annular plane systolic excursion TAPSE. The anesthetize rats are fixed on an operating table in a supine position mode, tracheotomy is carried out, a breathing machine is connected, and thoracotomy is carried out to expose the hearts. A catheter is inserted into each right ventricle, and the right ventricular systolic pressure is recorded. Then each catheter is slowly pushed forwards, can reach a corresponding pulmonary artery through a corresponding right ventricular outflow tract, the pressure waveform of a monitor is observed, and the mean pulmonary arterial pressure mPAP is recorded. Blood is collected and the rats are executed. The hearts and the lung tissue are taken out, the atrial tissue and the root of the main artery are removed, left and right ventricles are separated, bloodstain is washed out in PBS, moisture is sucked up by filter paper, and the weight of the right ventricles (RV) and the weight of the left ventricles and the […] (LV+IS) are respectively weighed. Calculation is carried out according to the following formula: right ventricular hypertrophy index=RV/(LV+IS).
(§7) All the data is represented by x±s, comparison among the groups is single factor analysis of variance, when P<0.05, it represents that the difference has a statistical significance, and statistical treatment is carried out by adopting an SPSS 22.0 software package.

[2] = test system: pulmonary arterial hypertension of model rats; experiment: Rat haemodynamics: mean pulmonary arterial pressure by right heart catheter, low-pressure low-oxygen model; details: for mPVP: x±s
Experimental: as §1, §2, §3, §4
40 rats are randomly divided into four groups, each group includes 10 rats, 3 groups are placed into a low-pressure low-oxygen cabin, the pressure of the oxygen cabin is regulated to 380 mmHg, a high altitude environment with an altitude of 5,500 meters is simulated, the low-pressure low-oxygen cabin is opened for 1 hour every day so as to add foods and water for animals and carry out corresponding medicine treatment, and meanwhile, the environment where the rats are positioned are kept alternate day and night according to a ratio of 12 h:12 h. […]
3% pentobarbital sodium (0.2 mL/100 g) is intraperitoneally injected to anesthetize the rats, ultrasonic detection is carried out, and the following ultrasonic data is recorded: PAT/PET (pulmonary arterial blood flow acceleration time/right ventricular […]); right ventricular ejection fraction EF; a right ventricular fractional shortening FS; and tricuspid annular plane systolic excursion TAPSE. […] A catheter is inserted into each right ventricle, and the right ventricular systolic pressure is recorded. Then each catheter is slowly pushed forwards, can reach a corresponding pulmonary artery through a corresponding right ventricular outflow tract, the pressure waveform of a monitor is observed, and the mean pulmonary arterial pressure mPAP is recorded. […]

[3] = test system: right ventricular hypertrophy of rats in low-pressure low-oxygen cabin; experiment: Rat right ventricular hypertrophy index, low-pressure low-oxygen model; details: for Full heart / RV (weight of the right ventricles) / RV/(LV + IS) right ventricular hypertrophy index: x±s
Experimental: as §1, §2, §3, §4, §5, §6, §7

[4] = 15 mg/kg intragastric for 14 days after 14 days hypoxia (380 mmHg)
[5] = 30 mg/kg intragastric for 14 days after 14 days hypoxia (380 mmHg)

COCCNS(=O)(=O)Nc1ncnc(OCCOc2ncc(Br)cn2)c1-c1ccc2c(c1)OCO2 [sc0062]
PAT/PET [1, 4]: 0.39 ± 0.07
Right ventricular EF [1, 4]: 67.25 ± 13.01
Right ventricular FS [1, 4]: 37.02 ± 10.63
TAPSE [1, 4]: 2.05 ± 0.29
PAT/PET [1, 5]: 0.40 ± 0.07
Right ventricular EF [1, 5]: 71.32 ± 9.35
Right ventricular FS [1, 5]: 39.76 ± 7.24
TAPSE [1, 5]: 1.93 ± 0.44
mPVP [2, 4]: 31.39 ± 3.90
mPVP [2, 5]: 26.91 ± 4.35
mean pulmonary arterial pressure compared with the model group ([2]; experimental groups A and B (15 and 30 mg/kg), p<0.01): significantly raised
Full heart [3, 4]: 1.47 ± 0.24
RV (weight of the right ventricles) [3, 4]: 0.56 ± 0.09
RV/(LV + IS) right ventricular hypertrophy index [3, 4]: 0.38 ± 0.02
Full heart [3, 5]: 1.30 ± 0.21
RV (weight of the right ventricles) [3, 5]: 0.48 ± 0.11
RV/(LV + IS) right ventricular hypertrophy index [3, 5]: 0.36 ± 0.02
right ventricular hypertrophy index compared with the model group ([3]; experimental groups A and B (15 and 30 mg/kg), p<0.05): reduced
